From US4801534A, “Water soluble zanthylium derivative substrates” (Coulter Electronics, Inc., priority 1987, dated 1989)

Columns and labels:
Type in all cases: biochemical
[1] = biological target: T1, Thrombin (Homo sapiens, UniProt P00734); assay: Thrombin reaction rates, spectrophotometric, change in absorbance at 496 nm; conditions: 37° C., 0.10M ACES pH 7.0, 0.05M KCl
T1 construct: Thrombin reaction rates were determined with the water soluble substrate
Protocol: Identical test conditions were used including temperature 37° C., volume 1.0 ml., and buffer 0.10M ACES pH 7.0, with 0.05M KCl. Since sarcosyl (Sar) and carbobenzyloxy (Cbz) have similar molecular weights, both were tested at 100 ug/ml.

[2] = biological target: T2, Purified human alpha-thrombin (Homo sapiens, UniProt P00734); assay: Spectrophotometric assay of thrombin with (Pyro-Pro-Arg)2-Rhodamine 110; conditions: substrate 78 ug/mL, 37° C., pH 8.0
T2 construct: Purified human alpha-thrombin; purchased Dr. John Fenton, N.Y. State Dept. of Health
Protocol: Dose response curves were determined for three different concentrations of thrombin by measuring absorbance increases at 468 nm and 496 nm. Working thrombin dilutions were prepared as follows: Purified human alpha-thrombin, Dr. John Fenton, N.Y. State Dept. of Health, was diluted to 1.04 U/mL, 0.52 U/mL and 0.25 U/mL in 0.05M HEPES, pH 8.0, with 0.25M NaCl and maintained at 4° C. The substrate, (Pyro-Pro-Arg)2 -Rhodamine 110, was dissolved to 78 ug/mL in 0.20M HEPES, pH 8.0, with 0.3M KCl. Disposable acrylic cuvettes with 1 cm light path, Centaur Sciences, Inc. were used. A one mL aliquot of substrate was pipetted into a cuvette and warmed to 37° C. in a heating block. A one mL sample of a working thrombin dilution was added to the cuvette. After mixing the thrombin and substrate, absorbances at 468 nm and 496 nm were determined for 30 seconds with a Hewlett-Packard Model 8450A spectrophotometer. The increased absorbances over the timed intervals were: […]

[3] = test system: coagulation factor IX; assay: Fluorescent coagulation factor IX assay based on APTT, substrate detects thrombin generation
Protocol: (§1) Fluorescent assays for coagulation factors VIII and IX, based on the activated partial thromboplastin time (APTT) assay, were performed with the substrate (Sar-Pro-Arg)2 -Rhodamine 110. The synthetic substrate was used to detect thrombin generation, substituting for the natural substrate fibrinogen present in both human and animal plasmas. Standard calibration curves were constructed with normal plasma, Thromboscreen™ from Curtin Matheson Scientific, which was used to correct factor VIII and IX deficient plasmas, George King Biomedical. The APTT reagent contained purified soybean phospholipids and ellagic acid activator, Dade Diagnostics. […] A Turner model 430 spectrofluorometer with a temperature controlled sample cell holder (37° C.) was used to make the kinetic fluorescent measurements. Excitation and emission wavelengths were set at 468 nm and 525 nm, respectively. Glass test tubes were used to perform the plasma activations and disposable acrylic cuvettes, Centaur Sciences, Inc., were used for the fluorescent measurements.
(§2) A 100 uL aliquot of 0.85% saline or normal plasma diluted in saline was added to a test tube followed by the sequential addition of 100 uL of factor deficient plasma and 100 uL of the APTT reagent. The test tube was incubated in a heating block at 37° C. for 2 minutes, at which time 100 uL of 25 mM CaCl2 was added and the incubation was continued for an additional 30 seconds. The incubation mixture was transferred to a cuvette containing 2.0 mL of the substrate solution prewarmed to 37° C. and the fluorescent rate measured. Linear dose response curves were obtained for factors VIII and IX between 1% and 100% of normal: […]

[4] = test system: coagulation factor VIII; assay: Fluorescent coagulation factor VIII assay based on APTT, substrate detects thrombin generation
Protocol: as §1, §2

[5] = substrate 80 micromolar, 15% ethanol for the Cbz substrate
[6] = Factor level 1 % normal, plasma dilution 1:250
[7] = Factor level 10 % normal, plasma dilution 1:25
[8] = Factor level 100 % normal, plasma dilution 1:2.5
[9] = Factor level <1 % normal (no plasma dilution), ex 468 nm, em 525 nm, quinine sulfate = 1.0

Row | Substance | Change In Absorbance, 496 nm/Unit Thrombin/mL [1, 5] | Absorbance, 0-30 seconds, 468 nm ([2]; Thrombin 0.26 U/mL) | Absorbance, 0-30 seconds, 496 nm ([2]; Thrombin 0.26 U/mL) | Absorbance, 0-30 seconds, 468 nm ([2]; Thrombin 0.52 U/mL) | Absorbance, 0-30 seconds, 496 nm ([2]; Thrombin 0.52 U/mL) | Absorbance, 0-30 seconds, 468 nm ([2]; Thrombin 1.04 U/mL) | Absorbance, 0-30 seconds, 496 nm ([2]; Thrombin 1.04 U/mL) | Relative Fluorescence, Factor IX [3, 6] | Relative Fluorescence, Factor IX [3, 7] | Relative Fluorescence, Factor IX [3, 8] | Relative Fluorescence, Factor IX [3, 9] | Change In Absorbance, 496 nm/Unit Thrombin/mL ([1]; substrate 800 micromolar) | Relative Fluorescence, Factor VIII [4, 6] | Relative Fluorescence, Factor VIII [4, 7] | Relative Fluorescence, Factor VIII [4, 8] | Relative Fluorescence, Factor VIII [4, 9]
1 | (Cbz-L-Pro-Arg)2 -Rhodamine 110 [(Cbz-Pro-Arg)2 -Rhodamine 110, reference compound] | 0.122 |  |  |  |  |  |  |  |  |  |  |  |  |  |  | 
2 | (H-L-Pyro-Pro-Arg)2 -Rhodamine 110 [(Pyro-Pro-Arg)2 -Rhodamine 110] |  | 0.0461 | 0.0462 | 0.0912 | 0.0860 | 0.1766 | 0.1671 |  |  |  |  |  |  |  |  | 
3 | (H-Sar-Pro-Arg)2 -Rhodamine 110 [(Sar-Pro-Arg)2 -Rhodamine 110] | 1.700 |  |  |  |  |  |  | 0.127 | 0.154 | 0.333 | 0.121 | 2.872 | 0.121 | 0.148 | 0.333 | 0.119
